Measured values from article PMC5748751, “Study of Structure and Permeability Relationship of Flavonoids in Caco-2 Cells” (Nutrients, 2017).
Where two headings read alike, the source gives them in different places. Marks after values point to notes of the source that are not given here.

What was measured:
[1] = Cell viability (MTT) assay of flavonoids in Caco-2 cells; assay type: cell-based; conditions: human
Method: The cytotoxicity of flavonoids and colchicine was evaluated by MTT assay. The cells were grown in 96-well plates at a density of 1 × 10^4 cells/well. After incubation with 40 μM flavonoid for 24 h, the cells were further incubated with an MTT solution (0.5 mg/mL) for 4 h at 37 °C. Finally, after removal of the supernatant, 150 μL dimethyl sulphoxide was added to each well to dissolve crystallized MTT. Absorbance was read at 570 nm with a multiskan spectrum microplate reader (Thermo Labsystems, Waltham, MA, USA). The percentage cell viability relative to that of the control cells was used as the cytotoxicity measure.

[2] = Permeability (bidirectional transport) of flavonoids in Caco-2 cell monolayers; assay type: in vitro ADME; conditions: human; for Papp A→B at 60 min, 40 μM: Caco-2, apical to basolateral; for Papp A→B at 60 min, 40 μM / Papp B→A at 60 min, 40 μM: incubation 60 min, 37 °C, D-Hank's pH 7.4, mean ± SD, n = 3–6; for Papp B→A at 60 min, 40 μM: Caco-2, basolateral to apical; for Papp at 1 h, 40 μM: Caco-2 monolayer; for efflux ratio at 60 min, 40 μM: pH 7.4, Caco-2 monolayer, read-out: Ratiop (ratio of Papp B to A to Papp A to B)
Method: Caco-2 cells were cultured in MEM supplemented with 10% FBS, 1% NEAA, penicillin (100 U/mL) and streptomycin (100 μg/mL) in an atmosphere of 5% CO2 and 90% relative humidity at 37 °C. All cells used in this study were between passages 35 and 45 [16].
Caco-2 cells were seeded at a density of about 8 × 10^4 cells/cm^2 on a 12 wells Millicell hanging insert and left to grow for 19–21 days to reach confluence. Culture medium was replaced every other day for 14 days and daily thereafter. The integrity and transport ability of the Caco-2 cells monolayer were examined by measuring the trans-epithelial electrical resistance (TEER) with a Millicell voltammeter (Millicell ERS-2, Merck Millipore, Billerica, MA, USA) and running standard assays using Lucifer yellow CH as paracellular flux marker. […] Differentiation of Caco-2 cells was checked after 4 and 12 days by determining the activity of alkaline phosphatase with an assay kit (Nanjing Jiancheng Bioengineering Institute, Nanjing, China) and after 21 days transmission electron microscopy was performed on Caco-2 monolayer to evaluate differentiation.
The Caco-2 cell monolayer was washed with D-Hank’s buffer (pH 7.4). Then, the flavonoid (40 μM) was added to either the apical (AP, 0.4 mL) or basolateral (BL, 1.95 mL) side, while the receiving chamber contained the corresponding volume of D-Hank’s buffer and incubated for 1 h at 37 °C. Solutions from both AP and BL sides of Caco-2 cell monolayer were collected and immediately frozen, lyophilized and preserved at −80 °C for high performance liquid chromatography (HPLC) analysis. Papp was calculated from Equation (1), where ΔQ/Δt is the rate of the flavonoid on the accepting chamber (μM/s), A is the surface area of the hanging insert (cm^2) and C0 is the initial concentration of tested flavonoid in donating chamber (μM/mL).(1) Papp=ΔQ/Δt/AC0

[3] = Stability of flavonoids in D-Hank's buffer relative to methanol; assay type: physicochemical; conditions: 20 μM flavonoid, HPLC peak area in D-Hank's / peak area in methanol × 100%
Method: The relative stability was expressed as the relative appearance of flavonoids in different solvents. Each flavonoid (20 μM) was dissolved in two different solvents, D-Hank’s and methanol. […] Relative concentration in D-Hank’s (%) = Peak area in D-Hank’s/Peak area in methanol × 100%(3)

[4] = Recovery (mass balance) of flavonoids during Caco-2 transport assay; assay type: in vitro ADME; conditions: human, Caco-2, mass balance, both sides of insert plus cells
Method: The recovery of the flavonoid glycosides during the transport assays was determined by mass balance and was measured as total amount of the flavonoids on both sides of the insert and in the Caco-2 cells.

Caco-2 cell monolayer = assay: Cellular accumulation (CA) of flavonoids in Caco-2 cell monolayer; conditions: for CA: both sides (CA A to B and CA B to A); for Ratioc (ratio of CA B to A to CA A to B): Caco-2 monolayer; for CA A to B: accumulated in cell monolayer after transport apical to basolateral; for CA A to B / CA B to A: 40 μM, 1 h, normalized to cellular protein, mean ± SD, n = 3; for CA B to A: accumulated in cell monolayer after transport basolateral to apical
Method: After the collection of samples from both AP and BL sides, the hanging insert was rinsed twice with ice-cold D-Hank’s buffer to stop further transport, and lysed with 0.1% Triton X-100 in D-Hank’s buffer then placed in an ultrasonic bath for 15 min. Cell lysates were collected and centrifuged at 7000× g for 10 min. Supernatants were analyzed by BCA kit (Dingguochangsheng Biotechnology, Beijing, China) for protein content. After protein content assay, supernatants were immediately frozen, lyophilized and preserved at −80 °C. The flavonoid concentration in lysis solution was determined by HPLC and normalized with cellular protein content.
To determine both the permeability and CA of flavonoids in Caco-2 cells, the lyophilized samples were dissolved in running 120 to 200 μL methanol, and centrifuged at 7000× g for 5 min. Aliquot of 20 μL of the supernatant solution was used for assay using Waters e2695 HPLC system (Milford, MA, USA) fitted with an Amethyst C18-H column (250 mm × 4.6 mm i.d., 5 μm; Sepax, Newark, DE, USA). The mobile phase consisted of A (0.01 M phosphoric acid (H3PO4))/B (acetonitrile) with 1.0 mL/min flow rate. […] Peak area measurement was used to obtain standard calibration curves to determine concentration of each flavonoid.

[5] = Caco-2, pH 7.4, as stated in text, direction not specified (bilateral)
[6] = transport apical to basolateral, read-out: Recovery (A to B, %)
[7] = transport basolateral to apical, read-out: Recovery (B to A, %)
[8] = pH 7.4, direction not specified (bilateral)

| SMILES | viability at 24 h, 40 μM [1] [%] | Papp A→B at 60 min, 40 μM [2] [×10⁻⁶ cm/s] | Papp B→A at 60 min, 40 μM [2] [×10⁻⁶ cm/s] | Papp at 1 h, 40 μM [2, 5] [×10⁻⁶ cm/s] | Relative concentration of flavonoids, D-Hank's/methanol (%) [3] | recovery [4, 6] [%] | recovery [4, 7] [%] | CA (Caco-2 cell monolayer) | efflux ratio at 60 min, 40 μM [2] | Ratioc (ratio of CA B to A to CA A to B) (Caco-2 cell monolayer) | CA A to B (Caco-2 cell monolayer) | CA B to A (Caco-2 cell monolayer) | Relative concentration of flavonoids, D-Hank's/methanol (%) ([3]; listed as chrysin) | Papp at 1 h, 40 μM [2, 8] [×10⁻⁶ cm/s] |
| --- | --- | --- | --- | --- | --- | --- | --- | --- | --- | --- | --- | --- | --- | --- |
| O=c1c(-c2ccc(O)cc2)coc2c([C@@H]3O[C@H](CO)[C@@H](O)[C@H](O)[C@H]3O)c(O)ccc12 [Compound 24, Puerarin] | 105 ± 6.13 | 2.25 ± 0.96 | 2.7 ± 0.41 | < 6 | 30.31% | 87.4 ± 3.31 | 85.25 ± 0.6 | not detected |  |  |  |  |  |  |
| O=C1C[C@@H](c2ccc(O)cc2)Oc2cc(O)cc(O)c21 [Compound 19, Naringenin] | 95.6 ± 3.47 | 32.1 ± 2.98 | 35.3 ± 1.16 | > 30 | 113.93% |  |  | < 5 µmol/g | 1.1 | 2.29 | 1.935 ± 0.305 µmol/g | 4.436 ± 0.299 ^b μmol/g |  |  |
| O=c1cc(-c2ccccc2)oc2cc(O)cc(O)c12 [Compound 7, Chrysin] | 103 ± 4.94 | 6.78 ± 0.12 | 8.41 ± 0.62 |  | 47.63% |  |  |  | 1.24 | 2.26 | 3.902 ± 0.251 µmol/g | 8.828 ± 0.213 ^b μmol/g | less than 50% |  |
| O=c1c(O)c(-c2ccc(O)cc2O)oc2cc(O)cc(O)c12 [Compound 11, Morin] | 102 ± 3.62 | 8.23 ± 0.87 | 21.6 ± 0.32 |  |  | 81.5 ± 6.7 | 90.1 ± 1.39 |  |  |  | 0.129 ± 0.008 ^b μmol/g | 0.060 ± 0.011 µmol/g |  |  |
| O=c1cc(-c2ccc(O)cc2)oc2cc(O)cc(O)c12 [Compound 6, Apigenin] | 101 ± 4.56 | 17.1 ± 1.72 | 16.9 ± 1.02 |  | 41.76% |  |  |  | 0.99 | 1.72 | 4.415 ± 0.467 µmol/g | 7.610 ± 0.694 ^b μmol/g |  |  |
| C[C@@H]1O[C@@H](Oc2c(-c3ccc(O)c(O)c3)oc3cc(O)cc(O)c3c2=O)[C@H](O)[C@H](O)[C@H]1O [Compound 16, Quercitrin] | 98.4 ± 3.86 | 4.24 ± 1.25 | 5.96 ± 1.2 |  | 116.67% | 90.7 ± 8.85 | 76.8 ± 9.36 | not detected |  |  |  |  |  | < 6 |
| C[C@@H]1O[C@@H](OC[C@H]2O[C@@H](Oc3c(-c4ccc(O)c(O)c4)oc4cc(O)cc(O)c4c3=O)[C@H](O)[C@@H](O)[C@@H]2O)[C@H](O)[C@H](O)[C@H]1O [Compound 17, Rutin] | 106 ± 5.48 | 4.04 ± 0.07 | 4.28 ± 0.44 | < 6 | 66.82% | 98.2 ± 4.74 | 97 ± 1.67 | not detected |  |  |  |  |  |  |
| O=c1c(O)c(-c2ccc(O)c(O)c2)oc2cc(O)cc(O)c12 [Compound 10, Quercetin] | 102 ± 5.19 | 2.55 ± 1.45 | 4.68 ± 0.41 |  | 52.10% |  |  |  | 1.84 |  |  |  |  |  |
| O=c1cc(-c2ccc(O)c(O)c2)oc2cc(O)cc(O)c12 [Compound 5, Luteolin] | 101 ± 4.19 | 10.1 ± 7.33 | 21.4 ± 2.12 |  | 87.51% |  |  |  | 2.12 | 2.23 | 3.876 ± 0.741 µmol/g | 8.639 ± 1.275 ^b μmol/g |  |  |
| COc1ccc(CCC(=O)c2c(O)cc(O[C@@H]3O[C@H](CO)[C@@H](O)[C@H](O)[C@H]3O[C@@H]3O[C@@H](C)[C@H](O)[C@@H](O)[C@H]3O)cc2O)cc1O [Compound 30, Neohesperidin dihydrochalcone] | 102 ± 6.35 | 4.25 ± 0.53 | 5.08 ± 1.08 | < 6 |  | 78.7 ± 1.3 | 79.5 ± 1.24 |  |  |  | 0.096 ± 0.010 µmol/g | 0.251 ± 0.012 µmol/g |  |  |
| COc1ccc(-c2cc(=O)c3c(OC)c(OC)c(OC)c(OC)c3o2)cc1 [Compound 2, Tangertin] | 97.5 ± 3.53 | 21.9 ± 0.585 | 23.9 ± 0.45 |  | 12.09% |  |  |  | 1.1 | 0.90 | 2.706 ± 0.174 µmol/g | 2.423 ± 0.543 µmol/g |  |  |
| C[C@@H]1O[C@@H](O[C@H]2[C@H](Oc3cc(O)c4c(c3)O[C@H](c3ccc(O)cc3)CC4=O)O[C@H](CO)[C@@H](O)[C@@H]2O)[C@H](O)[C@H](O)[C@H]1O [Compound 20, Naringin] | 99.1 ± 4.92 | 3.73 ± 0.73 | 5.09 ± 1.55 | < 6 |  | 93.2 ± 7.62 | 82.9 ± 11 |  |  |  | 0.058 ± 0.013 µmol/g | 0.068 ± 0.011 µmol/g |  |  |
| COc1ccc([C@@H]2CC(=O)c3c(O)cc(O)cc3O2)cc1O [Compound 18, Hesperetin] | 100 ± 2.7 | 23.5 ± 0.85 | 27.9 ± 2.76 | > 20 | 115.83% |  |  |  | 1.19 | 1.27 | 1.293 ± 0.086 µmol/g | 1.644 ± 0.300 µmol/g |  |  |
| O=c1cc(-c2ccc(O)cc2)oc2c([C@@H]3OC[C@H](O)[C@H](O)[C@H]3O)c(O)c([C@@H]3O[C@H](CO)[C@@H](O)[C@H](O)[C@H]3O)c(O)c12 [Compound 8, Schaftoside] | 103 ± 4.77 | 3.28 ± 0.32 | 2.81 ± 0.24 | < 6 |  | 72.3 ± 18.8 | 61.8 ± 0.72 | < 0.26 µmol/g |  |  | 0.024 ± 0.002 µmol/g | 0.044 ± 0.007 µmol/g |  |  |
| O=c1cc(-c2ccccc2)oc2ccccc12 [Compound 1, Flavone] | 96.3 ± 9.79 | 22.4 ± 1.37 | 21.7 ± 1.21 |  | 60.10% |  |  |  | 0.97 | 1.65 | 1.932 ± 0.051 µmol/g | 3.183 ± 0.504 ^a μmol/g |  |  |
| O=c1c(O)c(-c2cc(O)c(O)c(O)c2)oc2cc(O)cc(O)c12 [Compound 14, Myricetin] | 101 ± 3.15 | 0.29 ± 0.01 | 0.44 ± 0.01 |  | lower than 40% |  |  | not detected | 1.5 |  |  |  |  | < 0.5 |
